{
  "source": "patent US20080155704A1",
  "about": "“Methods and Compositions for Determining in vivo Activity of BiP” (King's College London, priority 2006, published 2008)",
  "key": {"[1]": {"test_system": "indoleamine 2,3-dioxygenase (IDO)", "test": "Intracellular indoleamine 2,3-dioxygenase in mature dendritic cells (flow cytometry)", "type": "cell-based, human", "conditions": "mDC(BiP)", "experimental": "Purified monocytes (>85% monocytes)(1.5.10^6/flask)(Corning Costar, High Wycombe, UK) were incubated in 5 ml of tissue culture medium (TCM)(RPMI 1640 medium (Sigma, Poole, UK) supplemented with 10% heat-inactivated foetal calf serum (FCS)(Life Technologies, Paisley, UK). iDC were generated using granulocyte macrophage—colony stimulating factor (GM-CSF) (1000 U/ml)(Novartis Research Institute, Vienna, Austria) and IL-4 (500 U/ml) (R&D Systems, Oxford, UK). Monocytes were cultured for 3 or 7 days with cytokines, either alone or in the presence of rhuBiP (20 μg/ml). Mature DC were generated by addition of 500 ng/ml lipopolysaccharide (LPS) for the final 2 days of culture.\nIntracellular staining was carried out with fixed cells incubated with 1% paraformaldehyde in IF buffer for 5 minutes at room temperature. The cells were washed twice with IF buffer containing 0.3% saponin for permeabilization. […] Antibodies were added at the pre-determined optimal concentration for 20 mins and then the cells were washed twice with IF buffer and analysed. […] Cells were analysed on a FACScan cytometer using Cellquest software (Becton Dickinson, Oxford, UK). […]\nImmunofluorescent staining was performed, as described previously (39), on DC harvested at day 7, T cells after 4 days co-culture with DC. […] Cells were analysed on a FACScan/FACScalibur cytometers using Cellquest software (BD, Oxford, UK)."}, "IL-8": {"test_system": "IL-8", "test": "IL-8 in supernatants of PBMC from rheumatoid arthritis patients (MSD multicytokine array)", "type": "cell-based, human", "conditions": "PBMC of RA patients on methotrexate, BiP 20 μg/ml, 96 h, 16 paired samples, p=0.0001", "experimental": "Peripheral blood mononuclear cells (PBMC) were separated from heparinised blood taken from patients with rheumatoid arthritis being treated with methotrexate. PBMC were either left unstimulated or stimulated with BiP (20 μg/ml). Supernatants were taken at 96 h, aliquoted and stored at −80° C. until required.\nSupernatants from unstimulated or BiP stimulated cultures were analysed in a multicytokine array (MSD). The results from 16 paired samples are shown as median and 95 percent confidence limits."}, "[2]": {"test_system": "splenocytes and lymph node cells", "test": "Intravenous injection of BiP into DBA mice, splenocytes and lymph node cells analysed", "type": "in vivo, mouse", "experimental": "The biomarkers were investigated in two situations: 1) when 50.10^6 human peripheral blood mononuclear cells were injected intraperitoneally, with or without BiP (100 μg), into a mouse and the cells were harvested from the peritoneum 11 days later; or (2) BiP (200 μg) was injected intravenously into a mouse and the spleens and lymph nodes removed 11 days later.\nMice were sacrificed at the end of the experiment and the spleens and lymph nodes removed. The spleens and lymph nodes were then gently pushed through a fine mesh to produce a single cell suspension. The cells were then either set up in culture or stained as for human cells following the protocol below.\nIF staining of mouse cells was as described for human cells above.\nMice were given a single dose of BiP and left for 11 days before they were sacrificed and their spleens and lymph nodes removed for analysis. The splenocytes and lymph node cells were pooled and used in immunofluorescence and flow cytometry studies. They were also set up in a simple recall antigen proliferation study to check that BiP had been successfully administered at time-point zero.\nCells were examined for: CD3, CD4, CD8, CD25, CD122, CCR4, intracellular CTLA-4 and cells actively producing IL-10 and interferon (IFN)γ.\nThus reduction of IFN (decreased IFN production) is an excellent marker of BiP function in vivo."}, "[3]": {"test_system": "collagen-induced arthritis (CIA)", "conditions": "administration of BiP to mice, literature reference, cited from earlier work"}, "[4]": {"conditions": "BiP 200 μg/mouse i.v., 11 days, n=3"}},
  "note": "Read-outs that look alike come from different tables or passages of the source.",
  "data": [
    {"substance": "BiP: 78 kD endoplasmic reticulum chaperone protein as disclosed in WO 00/21995; recombinant human protein", "values": [
      {"measurement": "cells containing intracellular IDO", "setting": "[1]; mean ±standard deviation, n=9 (Example 10)", "result": "14.1±7.1", "unit": "%"},
      {"measurement": "cells containing intracellular IDO", "setting": "[1]; n=4 (Example 1)", "result": "17.6±8.6", "unit": "%"},
      {"measurement": "IL-8 production", "setting": "IL-8", "result": "significantly less IL-8"},
      {"measurement": "intracellular CTLA-4", "setting": "[2]; BiP 200 μg/mouse i.v., 11 days", "result": "Increased intracellular CTLA-4"},
      {"measurement": "IL-10 producing cells", "setting": "[2]; [4]", "result": "6.1±1.3", "unit": "%"},
      {"measurement": "cells producing IFN gamma after stimulation by concanavalin A", "setting": "[2]; [4]", "result": "3.9±1.7", "unit": "%"},
      {"measurement": "% of CD8CD122+ cells", "setting": "[2]; BiP 200 μg/mouse i.v., 11 days, pooled splenocytes and lymph node cells, n=3", "result": "26.3±3.7", "unit": "%"},
      {"measurement": "IFN production by cells cultured overnight with con A", "setting": "[2]; cells from mice given BiP 11 days previously (FIG. 5)", "result": "significant reduction in IFN production"},
      {"measurement": "effect on collagen-induced arthritis", "setting": "[3]", "result": "prevented or treated ongoing collagen-induced arthritis"},
      {"measurement": "effect on collagen-induced arthritis", "setting": "[3]; listed as rhuBiP", "result": "prevented the induction of experimental arthritis"}
    ]}
  ]
}
